Data published in US20230077362A1 (CORTEVA AGRISCIENCE LLC, priority 2019, published 2023).
Where two headings read alike, the source gives them in different places.

Assays:
[1] = test system: Beet Armyworm (Spodoptera exigua) ("BAW"), second instar larvae; test: Bioassay on beet armyworm (BAW), 128-well diet tray assay; type: in vivo; details: for pest or weed control at 50 µg/cm2: Spodoptera exigua; for BAW rating: Table ABC, species BAW, C = not tested, D = no activity noticed
In short: (§1)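 After sealing with a clear self-adhesive lid, the trays are incubated at 25° C. with 14 h light and 10 h dark for 5 to 7 days; mortality in each well is recorded as a percentage and averaged across the eight wells.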

[2] = test system: Cabbage Looper (Trichoplusia ni) ("CL"), second instar larvae; test: Bioassay on cabbage looper (CL), 128-well diet tray assay; type: in vivo; details: for pest or weed control at 50 µg/cm2: Trichoplusia ni; for CL rating: Table ABC, species CL, C = not tested, D = no activity noticed
In short: as §1

[3] = read-out: BAW (Biological Results, rating)
[4] = read-out: CL (Biological Results, rating)

SMILES	pest or weed control at 50 µg/cm2 ([1]; read-out: BAW rating)	pest or weed control at 50 µg/cm2 ([2]; read-out: CL rating)	further results
Cc1ccc(OCCC(F)(F)F)c(N2C(=O)CS/C2=N\C(=O)Nc2ccc(-c3ncn(-c4ccc(SC(F)(F)F)cc4)n3)cc2)c1 [Compound J387, (Z)-1-(3-(5-Methyl-2-(3,3,3-trifluoropropoxy)phenyl)-4-oxothiazolidin-2-ylidene)-3-(4-(1-(4-((trifluoromethyl)thio)phenyl)-1H-1,2,4-triazol-3-yl)phenyl)urea]	50 to 100%	50 to 100%	
Cc1ccc(OCCC(F)(F)F)c(N2C(=O)CS/C2=N\C(=O)Nc2ccc(-n3cnc(-c4ccc(OC(F)(F)F)cc4)n3)cc2Cl)c1 [Compound J737, (Z)-1-(2-Chloro-4-(3-(4-(trifluoromethoxy)phenyl)-1H-1,2,4-triazol-1-yl)phenyl)-3-(3-(5-methyl-2-(3,3,3-trifluoropropoxy)phenyl)-4-oxothiazolidin-2-ylidene)urea]	50 to 100%	50 to 100%	
Cc1ccc(C(C)C)c(N2C(=O)CS/C2=N\C(=O)Nc2ccc(-c3ncn(-c4ccc(C(F)(F)F)cn4)n3)cc2F)c1 [Compound J279, (Z)-1-(2-Fluoro-4-(1-(5-(trifluoromethyl)pyridin-2-yl)-1H-1,2,4-triazol-3-yl)phenyl)-3-(3-(2-isopropyl-5-methylphenyl)-4-oxothiazolidin-2-ylidene)urea]			pest or weed control at 50 µg/cm2 [1, 3]: 50 to 100%; pest or weed control at 50 µg/cm2 [2, 4]: 50 to 100%
Cc1ccc(COCC(F)(F)F)c(N2C(=O)CS/C2=N\C(=O)Nc2ccc(-c3cn(-c4ccc(C(F)(F)F)cn4)cn3)cc2F)c1 [Compound J487, (Z)-1-(2-Fluoro-4-(1-(5-(trifluoromethyl)pyridin-2-yl)-1H-imidazol-4-yl)phenyl)-3-(3-(5-methyl-2-((2,2,2-trifluoroethoxy)methyl)phenyl)-4-oxothiazolidin-2-ylidene)urea]	50 to 100%	50 to 100%	
COc1ccc(COCC(F)(F)F)c(N2C(=O)CS/C2=N\C(=O)Nc2ccc(-c3ncn(-c4ccc(OC(F)(F)F)cc4)n3)cc2F)c1 [Compound J564]			BAW rating [1]: A (50-100); CL rating [2]: A (50-100)
COc1ccc(C(C)C)c(N2C(=O)CS/C2=N\C(=O)Nc2ccc(-c3ncn(-c4ccc(OC(F)(F)C(F)(F)F)cc4)n3)cc2F)c1 [Compound J27, (Z)-1-(2-Fluoro-4-(1-(4-(perfluoroethoxy)phenyl)-1H-1,2,4-triazol-3-yl)phenyl)-3-(3-(2-isopropyl-5-methoxyphenyl)-4-oxothiazolidin-2-ylidene)urea]			pest or weed control at 50 µg/cm2 [1, 3]: 50 to 100%; pest or weed control at 50 µg/cm2 [2, 4]: 50 to 100%
COC(C)c1ccc(C)cc1N1C(=O)CS/C1=N\C(=O)Nc1ccc(-n2cnc(-c3ccc(OC(F)(F)F)cc3)n2)cc1C (stereo not drawn) [Compound J467, (Z)-1-(3-(2-(1-Methoxyethyl)-5-methylphenyl)-4-oxothiazolidin-2-ylidene)-3-(2-methyl-4-(3-(4-(trifluoromethoxy)phenyl)-1H-1,2,4-triazol-1-yl)phenyl)urea]	50 to 100%	50 to 100%	
Cc1ccc(C(C)C)c(N2C(=O)CS/C2=N\C(=O)Nc2ccc(-c3cn(-c4ccc(S(=O)(=O)C(F)(F)F)cc4)cn3)cc2F)c1 [Compound J651, (Z)-1-(2-Fluoro-4-(1-(4-((trifluoromethyl)sulfonyl)phenyl)-1H-imidazol-4-yl)phenyl)-3-(3-(2-isopropyl-5-methylphenyl)-4-oxothiazolidin-2-ylidene)urea]	50 to 100%	50 to 100%	
Cc1ccc(COCc2c(F)c(F)c(F)c(F)c2F)c(N2C(=O)CS/C2=N\C(=O)Nc2ccc(-c3ncn(-c4ccc(OC(F)(F)F)cc4)n3)cc2F)c1 [Compound J622, (Z)-1-(2-Fluoro-4-(1-(4-(trifluoromethoxy)phenyl)-1H-1,2,4-triazol-3-yl)phenyl)-3-(3-(5-methyl-2-(((perfluorophenyl)methoxy)methyl)phenyl)-4-oxothiazolidin-2-ylidene)urea]	50 to 100%	50 to 100%	
COC(C)c1ccc(C)cc1N1C(=O)CS/C1=N\C(=O)Nc1ccc(-c2ncn(-c3ccc(C(F)F)cn3)n2)cc1F (stereo not drawn) [Compound J341]			BAW (Biological Results, rating) ([1]; Beet Armyworm (Spodoptera exigua), C = Not Tested): A (50-100); CL (Biological Results, rating) ([2]; Cabbage Looper (Trichoplusia ni), C = Not Tested): A (50-100)
COc1ccc(C(C)C)c(N2C(=O)CS/C2=N\C(=O)Nc2ccc(-c3ncn(-c4ccc(OC(F)(F)F)cc4)n3)c(C)c2)c1 [Compound J22, (Z)-1-(3-(2-Isopropyl-5-methoxyphenyl)-4-oxothiazolidin-2-ylidene)-3-(3-methyl-4-(1-(4-(trifluoromethoxy)phenyl)-1H-1,2,4-triazol-3-yl)phenyl)urea]			pest or weed control at 50 µg/cm2 [1, 3]: 50 to 100%; pest or weed control at 50 µg/cm2 [2, 4]: 50 to 100%
COC(c1ccc(C)cc1N1C(=O)CS/C1=N\C(=O)Nc1ccc(-c2ncn(-c3ccc([S+]([O-])C(F)(F)F)cc3)n2)cc1F)C(F)(F)F (stereo not drawn) [Compound J386, (Z)-1-(2-Fluoro-4-(1-(4-((trifluoromethyl)sulfinyl)phenyl)-1H-1,2,4-triazol-3-yl)phenyl)-3-(3-(5-methyl-2-(2,2,2-trifluoro-1-methoxyethyl)phenyl)-4-oxothiazolidin-2-ylidene)urea]	50 to 100%	50 to 100%	
CC(C)c1ccc(N(C)C)cc1N1C(=O)CS/C1=N\C(=O)Nc1ccc(-c2ncn(-c3ccc(C(F)(F)F)cn3)n2)cc1Cl [Compound J296, (Z)-1-(2-Chloro-4-(1-(5-(trifluoromethyl)pyridin-2-yl)-1H-1,2,4-triazol-3-yl)phenyl)-3-(3-(5-(dimethylamino)-2-isopropylphenyl)-4-oxothiazolidin-2-ylidene)urea]			pest or weed control at 50 µg/cm2 [1, 3]: 50 to 100%; pest or weed control at 50 µg/cm2 [2, 4]: 50 to 100%
CC(C)c1ccc(N(C)C)cc1N1C(=O)CS/C1=N\C(=O)Nc1ccc(-c2ncn(-c3ccc(OCC#N)cc3)n2)cc1F [Compound J342, (Z)-1-(4-(1-(4-(Cyanomethoxy)phenyl)-1H-1,2,4-triazol-3-yl)-2-fluorophenyl)-3-(3-(5-(dimethylamino)-2-isopropylphenyl)-4-oxothiazolidin-2-ylidene)urea]			pest or weed control at 50 µg/cm2 [1, 3]: 50 to 100%; pest or weed control at 50 µg/cm2 [2, 4]: 50 to 100%
Cc1ccc(OCCC(F)(F)F)c(N2C(=O)CS/C2=N\C(=O)Nc2ccc(-c3cn(-c4ccc(C(F)(F)F)cc4)cn3)cc2)c1 [Compound J517, (Z)-1-(3-(5-Methyl-2-(3,3,3-trifluoropropoxy)phenyl)-4-oxothiazolidin-2-ylidene)-3-(4-(1-(4-(trifluoromethyl)phenyl)-1H-imidazol-4-yl)phenyl)urea]	50 to 100%	50 to 100%	
CC(C)c1cc(N(C)C)ccc1N1C(=O)CS/C1=N\C(=O)Nc1ccc(-c2ncn(-c3ccc(OC(F)(F)F)cc3)n2)cc1F [Compound J112, (Z)-1-(3-(4-(Dimethylamino)-2-isopropylphenyl)-4-oxothiazolidin-2-ylidene)-3-(2-fluoro-4-(1-(4-(trifluoromethoxy)phenyl)-1H-1,2,4-triazol-3-yl)phenyl)urea]			pest or weed control at 50 µg/cm2 [1, 3]: 50 to 100%; pest or weed control at 50 µg/cm2 [2, 4]: 50 to 100%
Cc1ccc(COCC(F)F)c(N2C(=O)CS/C2=N\C(=O)Nc2ccc(-c3ncn(-c4ccc(C(F)(F)F)cn4)n3)cc2F)c1 [Compound J400]			BAW rating [1]: A (50-100); CL rating [2]: A (50-100)
Cc1ccc(COCC(F)(F)F)c(N2C(=O)CS/C2=N\C(=O)Nc2ccc(-c3nc(-c4ccc(OC(F)(F)F)cc4)no3)cc2F)c1 [Compound J427, (Z)-1-(2-Fluoro-4-(3-(4-(trifluoromethoxy)phenyl)-1,2,4-oxadiazol-5-yl)phenyl)-3-(3-(5-methyl-2-((2,2,2-trifluoroethoxy)methyl)phenyl)-4-oxothiazolidin-2-ylidene)urea]	50 to 100%	50 to 100%	
Cc1ccc(C(C)C)c(N2C(=O)CS/C2=N\C(=O)Nc2ccc(-c3cn(-c4ccc(C(F)(F)F)cc4)cn3)cc2)c1 [Compound J514, (Z)-1-(3-(2-Isopropyl-5-methylphenyl)-4-oxothiazolidin-2-ylidene)-3-(4-(1-(4-(trifluoromethyl)phenyl)-1H-imidazol-4-yl)phenyl)urea]	50 to 100%	50 to 100%	
Cc1cc(COCC(F)(F)F)c(N2C(=O)CS/C2=N\C(=O)Nc2ccc(-c3ncn(-c4ccc(S(F)(F)(F)(F)F)cc4)n3)cc2F)cc1C [Compound J497]			BAW rating [1]: A (50-100); CL rating [2]: A (50-100)
Cc1ccc(C(C)C)c(N2C(=O)CS/C2=N\C(=O)Nc2ccc(-n3cnc(-c4ccc(OC(F)(F)F)cc4)n3)cc2C)c1 [Compound J466, (Z)-1-(3-(2-Isopropyl-5-methylphenyl)-4-oxothiazolidin-2-ylidene)-3-(2-methyl-4-(3-(4-(trifluoromethoxy)phenyl)-1H-1,2,4-triazol-1-yl)phenyl)urea]	50 to 100%	50 to 100%	
Cc1cc(-n2cnc(-c3ccc(OC(F)(F)F)cc3)n2)ccc1NC(=O)/N=C1\SCC(=O)N1c1cc(N(C)C)ccc1C(F)(F)F [Compound J468, (Z)-1-(3-(5-(Dimethylamino)-2-(trifluoromethyl)phenyl)-4-oxothiazolidin-2-ylidene)-3-(2-methyl-4-(3-(4-(trifluoromethoxy)phenyl)-1H-1,2,4-triazol-1-yl)phenyl)urea]	50 to 100%	50 to 100%	
COC(C)c1ccc(C)cc1N1C(=O)CS/C1=N\C(=O)Nc1ccc(-c2ncn(-c3ccc(S(F)(F)(F)(F)F)cc3)n2)cc1F (stereo not drawn) [Compound J423]			BAW rating [1]: A (50-100); CL rating [2]: A (50-100)
Cc1ccc(C(F)(F)F)c(N2C(=O)CS/C2=N\C(=O)NC(C)Cc2ccc(-c3ncn(-c4ccc(OC(F)(F)F)cc4)n3)cc2)c1 (stereo not drawn) [Compound H4]			pest or weed control at 50 µg/cm2 [1, 3]: 50 to 100%; pest or weed control at 50 µg/cm2 [2, 4]: 50 to 100%
